Reference: publication PMC12519992 (2025)

Columns and labels:
[1] = tested on: dsDNA (dual-labeled) (DNA, duplex) CAATCGGATCGAATTCGATCCGATTG; assay: FRET melting; conditions: K+ 60 mM; 60 mM K-cacodylate (table note: Tris-HCl/KCl), pH 7.4; 1 µM compound
[2] = tested on: BCL2 (DNA, G4) GGGCGCGGGAGGAATTGGGCGGG; assay: fluorescence titration of ligand, Hill fit; conditions: K+; 100 mM Tris-KCl, pH 7.4, 25 °C; excitation 300 nm
[3] = tested on: dsDNA (DNA, duplex) CAATCGGATCGAATTCGATCCGATTG; assay: fluorescence titration of ligand, Hill fit; conditions: K+; 100 mM Tris-KCl, pH 7.4, 25 °C; main text: no substantial spectral change with dsDNA, ITC negligible
[4] = tested on: KRAS (DNA, G4) AGGGCGGTGTGGGAAGAGGGAAGAGGGGGAGG; assay: fluorescence titration of ligand, Hill fit; conditions: K+; 100 mM Tris-KCl, pH 7.4, 25 °C; excitation 300 nm
[5] = tested on: c-KIT2 (DNA, G4) GGGCGGGCGCGAGGGAGGGG; assay: ITC; conditions: K+ 100 mM; 100 mM Tris, 100 mM KCl, pH 7.4; main text prints ~2.6 µM
[6] = tested on: c-KIT1 (DNA, G4) GGGAGGGCGCTGGGAGGGAGGG; assay: ITC; conditions: K+ 100 mM; 100 mM Tris, 100 mM KCl, pH 7.4; main text prints ~3.3 µM
[7] = tested on: c-MYC27 (DNA, G4) TGAGGGTGGGTAGGGTGGGTAA; assay: fluorescence titration of ligand, Hill fit; conditions: K+; 100 mM Tris-KCl, pH 7.4, 25 °C; excitation 300 nm
[8] = tested on: c-MYC27 (DNA, G4) TGAGGGTGGGTAGGGTGGGTAA; assay: ITC; conditions: K+ 100 mM; 100 mM Tris, 100 mM KCl, pH 7.4; 5 µM DNA, 50 µM ligand
[9] = tested on: VEGF (DNA, G4) CGGGGCGGGCCGGGGGCGGGGT; assay: ITC; conditions: K+ 100 mM; 100 mM Tris, 100 mM KCl, pH 7.4; 5 µM DNA, 50 µM ligand
[10] = tested on: BCL2 (DNA, G4) GGGCGCGGGAGGAATTGGGCGGG; assay: ITC; conditions: K+ 100 mM; 100 mM Tris, 100 mM KCl, pH 7.4; 5 µM DNA, 50 µM ligand
[11] = tested on: KRAS (DNA, G4) AGGGCGGTGTGGGAAGAGGGAAGAGGGGGAGG; assay: ITC; conditions: K+ 100 mM; 100 mM Tris, 100 mM KCl, pH 7.4; 5 µM DNA, 50 µM ligand
[12] = tested on: c-KIT2 (DNA, G4) GGGCGGGCGCGAGGGAGGGG; assay: fluorescence titration of ligand, Hill fit; conditions: K+; 100 mM Tris-KCl, pH 7.4, 25 °C; excitation 300 nm
[13] = tested on: c-KIT1 (DNA, G4) GGGAGGGCGCTGGGAGGGAGGG; assay: fluorescence titration of ligand, Hill fit; conditions: K+; 100 mM Tris-KCl, pH 7.4, 25 °C; excitation 300 nm

ΔTm [1]	Kd [2]	KD [3]	Kd [4]	KD [5]	KD [6]	KD [7]	KD [8]	KD [9]	KD [10]	KD [11]	KD [2]	KD [12]	KD [13]	Compound
0.01 °C	–	–	–	–	–	–	–	–	–	–	–	–	–	C[n+]1cc(NC(=O)c2ccc3ccc4ccc(C(=O)Nc5cc6ccccc6[n+](C)c5)nc4c3n2)cc2ccccc21
–	1800 nM	–	–	–	–	–	–	–	–	–	–	–	–	Nc1nc(C(=O)Nc2ccc(-n3cc(CNC(=O)c4csc(NC(=O)c5csc(N)n5)n4)nn3)cc2)cs1
0.07 °C	–	2200 nM	800 nM	3700 ± 300 nM	2200 ± 1000 nM	2500 nM	2280 ± 740 nM	17700 ± 4000 nM	3000 ± 100 nM	530 ± 250 nM	1500 nM	1500 nM	2000 nM	Nc1nc(C(=O)Nc2nc(C(=O)NCc3cn(-c4ccc(NC(=O)[C@@H]5CCCN5)cc4)nn3)cs2)cs1
